The series in a line: Stability study of green tea catechins: incubation in Na-Pi buffer pH 7.4 at 37° C., HPLC. It is filed as physicochemical. Here is the method:
Samples were prepared according to the following method. Briefly, each sample was treated with acetic acid (30% final concentration) for 30 min and then added to an aqueous solution containing 10% acetonitrile, 0.5 mg/mL EDTA and 0.5 mg/mL ascorbic acid. The mix was then centrifuged for 30 min at 14′000×g and the supernatant analysed by HPLC. Following this protocol allows the complete recovery of all catechins.
Green tea catechins were determined by reverse phase HPLC using an analytical method based on the ISO FDIS 14502-2 method. The HPLC system used was a 1100 series Hewlett-Packard (Geneva, Switzerland) model equipped with an ultraviolet-visible photodiode array and a fluorimetric detector. Catechins were detected by UV absorption at 280.4 nm except for catechins and epicatechin that were detected by fluorescence (excitation: 280 nm; emission: 310 nm). Samples (10 μl) were separated on a Zorbax RX—C18 column (4.6 mm internal diameter×250 mm length, Agilent technologies). Flow rate was 1.0 mL/min.
Sample concentration of green tea catechins (C, EC, EgC, EgCg, ECg) were calculated based on the corresponding calibration curve and reported as % of the initial value (sample at t0). Since caffeine, endogenous to green tea samples, is stable under the selected assay conditions, it was used as internal standard for all calculations. […]

Experimental findings from patent US9180077B2, “Green tea extracts of improved bioavailability” (Nestec S.A., priority 2009, dated 2015) are described below.

Take `O=C1O[C@H]([C@@H](O)CO)C(O)=C1O` [vitamin C, ascorbic acid]: the protection of catechins entry (0.2 mM, at least for 2 h of incubation, data not shown) is given as “a certain protection”. The “vitamin C concentration at which the plateau of stabilisation is reached” value (stabilisation during 6 h, GTE 0.1%, pH 7.4, 37° C) was found to be 2.5 mM.
